Publication PMC5813806 (ACS chemical neuroscience, 2016)
Several values for one entry are separate records, joined by “and”; a condition that tells them apart may be missing. Equal values may be shown once. Read-outs that look alike come from different tables or passages of the source.

What was measured:
[1] = target: T1, human D2 receptor (CHO-D2R) (Homo sapiens, UniProt P14416); assay: ERK1/2 phosphorylation; assay type: cell-based; settings: CHO-D2R cells, 1 μM, 5 min
[2] = target: T1, human D2 receptor (CHO-D2R); assay: [3H]methylspiperone binding to CHO-D2R membranes; settings: 10 μM; for Affinity to D2R, high-affinity state (result in words): CHO-D2R membranes pretreated with GDP and Na+, Mg2+ buffer; for Binding to D2R in binding screening (result in words): CHO-D2R, regular binding buffer
[3] = target: T2, human D3 receptor (CHO-D3R) (Homo sapiens, UniProt P35462); assay: ERK1/2 phosphorylation; assay type: cell-based; settings: for ERK1/2 phosphorylation, functional screening (result in words): CHO-D3R cells, 5 min
[4] = target: T2, human D3 receptor (CHO-D3R); assay: Agonist-induced [35S]GTPγS binding to CHO-D3R membranes; assay type: biochemical
[5] = target: T1, human D2 receptor (CHO-D2R); assay: Agonist-induced [35S]GTPγS binding to CHO-D2R membranes; assay type: biochemical
hD3R = hD3R (Homo sapiens, UniProt P35462); assay: PathHunter eXpress U2OS D3R β-arrestin-2 recruitment assay; assay type: cell-based
[6] = target: human D3 receptor (HEK-D3R) (Homo sapiens, UniProt P35462); assay type: cell-based; settings: 1 μM 30 min pretreatment, washes, 1 μM 2 min
[7] = target: T2, human D3 receptor (CHO-D3R); assay: [3H]methylspiperone binding to CHO-D3R membranes; settings: for Ki: [3H]methylspiperone competition, two-site analysis
[8] = target: T3, human D4 receptor (HEK-D4R) (Homo sapiens, UniProt P21917); assay: [3H]methylspiperone binding screening at HEK-D4R; settings: 10 μM
T3 sequence (P21917 1-419): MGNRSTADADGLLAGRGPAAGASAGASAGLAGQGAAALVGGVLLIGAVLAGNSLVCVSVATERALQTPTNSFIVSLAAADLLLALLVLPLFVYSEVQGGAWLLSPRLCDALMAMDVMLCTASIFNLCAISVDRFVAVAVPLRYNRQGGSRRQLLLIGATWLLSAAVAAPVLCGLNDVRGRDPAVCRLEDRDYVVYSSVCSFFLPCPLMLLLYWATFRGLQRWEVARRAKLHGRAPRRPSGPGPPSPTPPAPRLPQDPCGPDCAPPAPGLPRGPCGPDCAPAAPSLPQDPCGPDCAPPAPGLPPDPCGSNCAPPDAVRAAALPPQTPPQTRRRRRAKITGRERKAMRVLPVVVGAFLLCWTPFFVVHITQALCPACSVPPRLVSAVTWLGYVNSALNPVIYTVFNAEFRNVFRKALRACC

T2 sequence (P35462 whole entry): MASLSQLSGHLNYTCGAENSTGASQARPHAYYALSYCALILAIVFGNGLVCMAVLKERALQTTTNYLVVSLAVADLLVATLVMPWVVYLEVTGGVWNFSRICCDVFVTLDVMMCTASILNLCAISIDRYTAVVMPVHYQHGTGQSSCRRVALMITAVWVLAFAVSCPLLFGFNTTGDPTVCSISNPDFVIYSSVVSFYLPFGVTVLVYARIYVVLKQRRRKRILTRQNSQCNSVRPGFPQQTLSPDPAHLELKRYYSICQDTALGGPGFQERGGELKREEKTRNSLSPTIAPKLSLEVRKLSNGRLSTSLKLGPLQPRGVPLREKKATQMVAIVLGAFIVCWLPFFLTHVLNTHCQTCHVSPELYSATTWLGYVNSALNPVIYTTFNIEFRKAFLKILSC
T1 sequence (P14416 whole entry): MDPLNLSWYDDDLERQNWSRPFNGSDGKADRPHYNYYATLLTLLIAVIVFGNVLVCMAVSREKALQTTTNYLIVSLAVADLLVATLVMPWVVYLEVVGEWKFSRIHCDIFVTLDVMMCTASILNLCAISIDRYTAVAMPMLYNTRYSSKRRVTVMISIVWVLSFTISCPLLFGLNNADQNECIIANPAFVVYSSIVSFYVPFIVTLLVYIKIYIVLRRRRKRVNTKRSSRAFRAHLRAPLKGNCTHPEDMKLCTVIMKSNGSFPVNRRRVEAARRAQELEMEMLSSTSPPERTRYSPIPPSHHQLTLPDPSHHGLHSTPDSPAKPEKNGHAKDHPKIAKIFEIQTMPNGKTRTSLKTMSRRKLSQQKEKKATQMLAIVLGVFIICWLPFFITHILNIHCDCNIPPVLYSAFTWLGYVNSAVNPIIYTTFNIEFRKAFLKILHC
hD3R, sequence (P35462 whole entry): as the sequence (P35462 whole entry) above
human D3 receptor (HEK-D3R), sequence (P35462 whole entry): as above

Compound	ERK1/2 phosphorylation, functional screening (result in words) [1]	Affinity to D2R, high-affinity state (result in words) [2]	Binding to D2R in binding screening (result in words) [2]	ERK1/2 phosphorylation Emax ([3]; CHO-D3R cells treated 5 min at 37 °C, DA = 100)	ERK1/2 phosphorylation, functional screening (result in words) ([3]; 1 μM)	EC50 ([3]; read-out: ERK1/2 phosphorylation EC50, CHO-D3R cells treated 5 min at 37 °C)	[35S]GTPγS binding Emax ([4]; DA effect defined as 100%)	EC50 ([4]; read-out: [35S]GTPγS binding EC50)	[35S]GTPγS binding Emax ([5]; D2R, DA effect defined as 100%)	EC50 ([5]; read-out: [35S]GTPγS binding EC50, D2R (CHO-D2R membranes))	β-arrestin recruitment Emax (hD3R; perhaps underestimates from incomplete curves)	EC50 (hD3R; read-out: β-arrestin recruitment EC50, 90 min stimulation)	Desensitization of D3R/ERK1/2 signaling on repeated treatment [6]	Binding to D3R in binding screening (result in words) ([7]; CHO-D3R, 10 μM)	Ki ([7]; read-out: Ki-H (high-affinity Ki) to CHO-hD3)	Ki ([7]; read-out: Ki-L (low-affinity Ki) to CHO-hD3)	Binding to D4R in binding screening (result in words) [8]	IC50 ([2]; read-out: IC50 for D2R binding, low-affinity state, CHO-D2R in Na+-GTPγS binding buffer)	Selectivity to D3R in ERK1/2 activation ([3]; CHO-D3R versus CHO-D2R cells, 1 μM)
NCCc1ccc(O)c(O)c1 [DA, dopamine]	significantly evoked ERK1/2 phosphorylation	higher affinity for D2R than in the regular binding buffer	high binding affinity																
CCCN1CCO[C@@H]2c3cc(O)ccc3OC[C@H]21 [PD128907]	significantly evoked ERK1/2 phosphorylation	higher affinity for D2R than in the regular binding buffer	high binding affinity	100	significantly activated ERK1/2 phosphorylation	7.1 ± 0.5 nM	95.1 ± 2.1 % of DA	1.19 nM and 1.2 nM	92.8 ± 1.7 % of DA	103 ± 29.6 nM	100 % of PD128907	5.5 ± 0.18 nM	significant reduction of ERK1/2 phosphorylation signal	high binding affinity	3.7 ± 1.6 nM	14.6 ± 3.6 nM	high binding affinity	> 10000 nM	
CC(N)CCc1ccco1 (centres unmarked) [SK603, 4-(fluran-2-yl)butan-2-amine]					reduction in functional effect														maintained selectivity to D3R
